≈ marks a conversion by molar mass, not a printed value.
How the values were obtained:
Bos taurus = organism: Bos taurus; test: Inhibition of calf DNA polymerase alpha assessed as incorporation of [3H]dTTP
[1] = target: DNA polymerase beta (Rattus norvegicus) (UniProt P06766); test: Inhibition of rat DNA polymerase beta assessed as incorporation of [3H]dTTP

SMILES: CO[C@@H]1C[C@]2(C)[C@@H]([C@H](C)CCC=C(C)C)CC[C@@]2(C)C2=C1[C@]1(C)[C@@H](CC2=O)[C@@](C)(C(=O)O)[C@@H](O)C[C@H]1O
- MIC (Bos taurus): 75 µM (≈ 38.8 µg/mL)
- MIC [1]: 130 µM (≈ 67.2 µg/mL)

SMILES: CC(C)=CCC[C@@H](C)[C@H]1CC[C@@]2(C)C3=C(CC[C@]12C)[C@]1(C)[C@@H](CC3=O)[C@@](C)(C(=O)O)[C@H](O)C[C@H]1O
- MIC (Bos taurus): 35 µM (≈ 17 µg/mL)
- MIC [1]: 95 µM (≈ 46.2 µg/mL)

SMILES: CC(C)=CCC[C@@H](C)[C@H]1CC[C@@]2(C)C3=C([C@H](O)C[C@]12C)[C@]1(C)[C@@H](CC3=O)[C@@](C)(C(=O)O)[C@@H](O)C[C@H]1O
- MIC (Bos taurus): 75 µM (≈ 37.7 µg/mL)
- MIC [1]: 125 µM (≈ 62.8 µg/mL)

SMILES: CC(C)=CCC[C@@H](C)[C@H]1CC[C@@]2(C)C3=C(CC[C@]12C)[C@]1(C)[C@@H](CC3=O)[C@@](C)(C(=O)O)[C@@H](O)C[C@H]1O
- MIC (Bos taurus): 30 µM (≈ 14.6 µg/mL)
- MIC [1]: 90 µM (≈ 43.8 µg/mL)
